Data set [1] is described as follows: Cytotoxicity, inhibition of cell growth in HEL cell culture. The format is cell-based. The note with it: human; HEL cells; concentration reducing cell growth by 50%.
Data set [2] has as its system VZV Oka (TK+). Nature of the data set: microbe, parasite or virus in culture. The data set is classed as cell-based, varicella zoster virus. Conditions: Human alphaherpesvirus 3, HEL, read-out: Antiviral activity, EC50 VZV Oka (TK+). How it is done: (§1) The compounds were evaluated against human cytomegalovirus (HCMV, strains AD-169 and Davis) and the varicella zoster virus (VZV, strains OKA and YS). The antiviral assays were based on the inhibition of virus-induced cytopathicity or plaque formation in human embryonic lung (HEL) fibroblasts. Confluent cell cultures in 96-well microplates were inoculated with 100 CCID50 of the virus (1 CCID50 being the virus dose to infect 50% of the cell culture) or 10 or 100 plaque-forming units (PFU) (for VZV and HCMV) in the presence of varied concentrations of the test compounds. Viral cytopathicity or plaque formation was recorded as soon as it reached completion in the control virus-infected cell cultures not treated with the test compounds.

The subject of data set [3] is HEL cells. Nature of the data set: Cytotoxicity, alteration of cell morphology in HEL cell culture. The data set is classed as cell-based, human. The note with it: minimum cytotoxic concentration causing microscopically detectable alteration of cell morphology.
For data set [4], the system named is VZV 07-1 (TK-). As to the kind of experiment: microbe, parasite or virus in culture. The format is cell-based, varicella zoster virus. The note with it: Human alphaherpesvirus 3, HEL, read-out: Antiviral activity, EC50 VZV 07-1 (TK-).
Data set [5] has as its system HCMV AD-169. As to the kind of experiment: Anti-HCMV assay (AD-169 strain), inhibition of virus-induced cytopathicity or plaque formation in HEL fibroblasts. The format is cell-based, human cytomegalovirus. Conditions: HEL cell culture; for EC50: Human betaherpesvirus 5, AD169, concentration reducing virus plaque formation by 50%, read-out: Antiviral activity, EC50 HCMV AD-169; for Inhibitory properties against HCMV (in words): AD-169 and Davis strains. How it is done:
as §1
A general note: Protection from cytopathic effect is a common read-out in antiviral testing.

The subject of data set [6] is HCMV Davis. Nature of the data set: Anti-HCMV assay (Davis strain), inhibition of virus-induced cytopathicity or plaque formation in HEL fibroblasts. The data set is classed as cell-based, human cytomegalovirus. Conditions: Human betaherpesvirus 5; HEL cell culture; concentration reducing virus plaque formation by 50%; read-out: Antiviral activity, EC50 HCMV Davis. How it is done: as §1

As a reminder, the CC50 is the concentration that lowers cell viability or growth by half. Lower therefore signals harm at low concentration. In data set [1], `Nc1nc2c(ncn2COCCO)c(=O)[nH]1` [Acyclovir, reference compound] had a CC50 greater than 100 µM.

Usually EC50 stands for the concentration at which the effect is half-maximal. Consider `O=c1[nH]c(=O)n([C@H]2C[C@H](O)[C@@H](CO)O2)cc1/C=C/Br` [Brivudine, reference compound], for which the EC50 in data set [2] was 0.039 µM; in data set [4] it was 6.04 µM. Besides, the 50% cytotoxic concentration (CC50) in data set [1] was greater than 100 µM. Moreover, the “Cytotoxicity, Cell morphology MCC” value in data set [3] is greater than 300 μM.

In turn, `Nc1ccn(C[C@@H](CO)OCP(=O)(O)O)c(=O)n1` [Cidofovir, reference compound] displayed a CC50 in data set [1] of 129 µM. Also, the EC50 in data set [5] and in data set [6] was 0.38 µM in each case. Moreover, in data set [3], the “Cytotoxicity, Cell morphology MCC” value turned out to be 300 μM.

By melting point is commonly meant the temperature of the solid-liquid transition. In turn, `O=c1c2ccccc2ncn1CCn1c(=O)ccn(CCCOc2ccc(Br)cc2)c1=O` [Compound 9, 1-[3-(4-Bromophenoxy)propyl]-3-[2-(4-oxoquinazolin-4(3H)-yl)ethyl]uracil] had a melting point of 178.5 to 179.5 °C. The EC50 in data set [2] was greater than 100 µM. In data set [5], the “Inhibitory properties against HCMV (in words)” value (from here on “Inhibitory properties”) is reported as “complete loss of inhibitory properties” and the EC50 is greater than 100 µM. The “Cytotoxicity, Cell morphology MCC” value in data set [3] is listed as 100 μM. Besides, the EC50 in data set [6] was greater than 100 µM. Also, the EC50 in data set [4] is greater than 100 µM.

Turning to `O=c1c2ccccc2ncn1CCn1c(=O)ccn(CCCCOc2ccc(Br)cc2)c1=O` [Compound 10, 1-[4-(4-Bromophenoxy)butyl]-3-[2-(4-oxoquinazolin-4(3H)-yl)ethyl]uracil], the melting point is 191 to 192 °C. For the same molecule, the EC50 in data set [2] was greater than 20 µM. Further, in data set [5], the “Inhibitory properties” value is recorded as “complete loss of inhibitory properties” and the EC50 is greater than 20 µM. In data set [3], the “Cytotoxicity, Cell morphology MCC” value came out at 20 μM. For the same molecule, the EC50 in data set [6] is greater than 100 µM. In data set [4], the EC50 is greater than 100 µM.

Molecule `O=c1c2ccccc2ncn1CCn1c(=O)ccn(CCCCCOc2ccc(Br)cc2)c1=O` [Compound 11, 1-[5-(4-Bromophenoxy)pentyl]-3-[2-(4-oxoquinazolin-4(3H)-yl)ethyl]uracil] gave a melting point of 174.5 to 176 °C. In addition, the EC50 in data set [2] was greater than 20 µM. Also, in data set [5], the “Inhibitory properties” value is given as “complete loss of inhibitory properties” and the concentration giving a half-maximal response (EC50) is greater than 20 µM. Further, in data set [3], the “Cytotoxicity, Cell morphology MCC” value amounted to 100 μM. The EC50 in data set [6] is greater than 20 µM. In data set [4], the EC50 is greater than 100 µM.

On to `O=c1c2ccccc2ncn1CCn1c(=O)ccn(CCCCCCOc2ccc(Br)cc2)c1=O` [Compound 12, 1-[6-(4-Bromophenoxy)hexyl]-3-[2-(4-oxoquinazolin-4(3H)-yl)ethyl]uracil], for which the melting point lay within 178.5 to 179.5 °C. Also, in data set [2], the EC50 is greater than 100 µM. Also, the EC50 in data set [5] is greater than 100 µM. Also, the “Cytotoxicity, Cell morphology MCC” value in data set [3] is listed as 100 μM. The EC50 in data set [6] is greater than 20 µM. In addition, the EC50 in data set [4] is greater than 100 µM.

Molecule `O=c1c2ccccc2ncn1CCn1c(=O)ccn(CCCCCCCCOc2ccc(Br)cc2)c1=O` [Compound 13, 1-[8-(4-Bromophenoxy)octyl]-3-[2-(4-oxoquinazolin-4(3H)-yl)ethyl]uracil] registered a melting point of 171.5 to 173 °C. Besides, the EC50 in data set [2] was greater than 100 µM. The CC50 in data set [1] is 12.8 µM. In data set [5], the EC50 was greater than 100 µM. Besides, in data set [3], the “Cytotoxicity, Cell morphology MCC” value is on record as greater than 100 μM. Also, the EC50 in data set [6] is greater than 100 µM. In data set [4], the EC50 is greater than 100 µM.

Turning to `O=c1c2ccccc2ncn1CCn1c(=O)ccn(CCCCCCCCCCOc2ccc(Br)cc2)c1=O` [Compound 14, 1-[10-(4-Bromophenoxy)decyl]-3-[2-(4-oxoquinazolin-4(3H)-yl)ethyl]uracil], the melting point lay in the range of 161 to 162 °C. Also, the EC50 in data set [2] is greater than 100 µM. In data set [1], this molecule had a CC50 greater than 100 µM. Also, in data set [5], the EC50 was greater than 100 µM. For the same molecule, the “Cytotoxicity, Cell morphology MCC” value in data set [3] is reported as greater than 100 μM. Further, in data set [6], the EC50 was greater than 100 µM. In data set [4], the EC50 was greater than 100 µM.

Molecule `O=c1c2ccccc2ncn1CCn1c(=O)ccn(CCCCCCCCCCCCOc2ccc(Br)cc2)c1=O` [Compound 15, 1-[12-(4-Bromophenoxy)dodecyl]-3-[2-(4-oxoquinazolin-4(3H)-yl)ethyl]uracil] had a melting point of 150 to 152 °C. Besides, in data set [2], the EC50 was greater than 100 µM. In data set [1], the CC50 was greater than 100 µM. Further, in data set [5], the EC50 was greater than 100 µM. Also, the “Cytotoxicity, Cell morphology MCC” value in data set [3] is reported as no less than 100 μM. In data set [6], the 50% effective concentration (EC50) was greater than 100 µM. Further, in data set [4], the EC50 is greater than 100 µM.

`O=c1c2ccc(Cl)cc2ncn1CCn1c(=O)ccn(CCCCCOc2ccc(Br)cc2)c1=O` [Compound 16, 1-[5-(4-Bromophenoxy)pentyl]-3-[2-(7-chloro-4-oxoquinazolin-4(3H)-yl)ethyl]uracil] registered a melting point of 154 to 155 °C. Also, the EC50 in data set [2] is greater than 20 µM. Also, in data set [5], the “Inhibitory properties” value is recorded as “complete loss of inhibitory properties” and the EC50 is greater than 20 µM. For the same molecule, in data set [3], the “Cytotoxicity, Cell morphology MCC” value is reported as 20 μM. In data set [6], the concentration for a half-maximal effect (EC50) is greater than 20 µM. Also, the EC50 in data set [4] is greater than 100 µM.

`O=c1c2ccccc2ncn1CCCn1c(=O)ccn(CCCCCOc2ccc(Br)cc2)c1=O` [Compound 17, 1-[5-(4-Bromophenoxy)pentyl]-3-[3-(4-oxoquinazolin-4(3H)-yl)propyl]uracil] came in with a melting point of 103.5 to 104.5 °C. For the same molecule, the half-maximal effective concentration (EC50) in data set [2] was determined as 29 µM. Besides, the CC50 in data set [1] was found to be 1.81 µM. Also, the EC50 in data set [5] turned out to be 7.31 µM. Further, in data set [3], the “Cytotoxicity, Cell morphology MCC” value is given as 20 μM. Also, the 50% effective concentration (EC50) in data set [6] amounted to 5.23 µM. For the same molecule, in data set [4], the EC50 came to 29 µM.

Consider `Cc1ccc2ncn(CCn3c(=O)ccn(CCCCCOc4ccc(Br)cc4)c3=O)c(=O)c2c1` [Compound 18, 1-[5-(4-Bromophenoxy)pentyl]-3-[2-(6-methyl-4-oxoquinazolin-4(3H)-yl)ethyl]uracil], for which the melting point lay in the range of 180 to 181.5 °C. For the same molecule, the EC50 in data set [2] was greater than 100 µM. Further, the CC50 in data set [1] was greater than 100 µM. For the same molecule, in data set [5], the “Inhibitory properties” value is given as “complete loss of inhibitory properties” and the EC50 was greater than 100 µM. In data set [3], the “Cytotoxicity, Cell morphology MCC” value is greater than 100 μM. For the same molecule, the EC50 in data set [6] was greater than 100 µM. In addition, in data set [4], the EC50 was greater than 100 µM.

In data set [1], `Nc1nc(O)c2ncn(COC(CO)CO)c2n1` [Ganciclovir, reference compound] returned a CC50 of 196 µM. Besides, the EC50 in data set [5] amounted to 2.4 µM; in data set [6], 2.01 µM. Also, in data set [3], the “Cytotoxicity, Cell morphology MCC” value is given as 350 μM.

The record behind these values is paper PMC7604896, “Synthesis and Antiviral Properties of 1-Substituted 3-[ω-(4-Oxoquinazolin-4(3H)-yl)alkyl]uracil Derivatives” (Acta Naturae, 2020).
